From ChEMBL document CHEMBL1201862, “PubChem BioAssay data set” (2004)
Where a name gives a salt, the structure may show the parent alone.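 96-well plates; 48 h exposure; 5 concentrations. Endpoints by linear interpolation between flanking doses. Not reached: highest tested concentration assigned. GI50 = concentration required for 50% inhibition of growth.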 Activity calls are given as the source filed them. Rule as the data show it: active = GI50 up to about 1.1 µM and inactive = higher.

Experiments:
Assay in all cases: growth of human tumour cells (NCI), 48 h
CAKI-1 = tested on: CAKI-1
SF-539 = tested on: SF-539
PC-3 = tested on: PC-3
A498 = tested on: A498
MDA-N = tested on: MDA-N
SR = tested on: SR
T47D = tested on: T47D
DU-145 = tested on: DU-145
MDA-MB-435 = tested on: MDA-MB-435
NCI-H23 = tested on: NCI-H23
Hs-578T = tested on: Hs-578T
COLO 205 = tested on: COLO 205
ACHN = tested on: ACHN
UO-31 = tested on: UO-31
MOLT-4 = tested on: MOLT-4
SNB-75 = tested on: SNB-75
MDA-MB-231 = tested on: MDA-MB-231
BT-549 = tested on: BT-549
NCI-H522 = tested on: NCI-H522
DLD-1 = tested on: DLD-1

Compound	GI50 (CAKI-1)	GI50 (SF-539)	GI50 (PC-3)	GI50 (A498)	GI50 (MDA-N)	GI50 (SR)	GI50 (T47D)	GI50 (DU-145)	GI50 (MDA-MB-435)	GI50 (NCI-H23)	GI50 (Hs-578T)	GI50 (COLO 205)	GI50 (ACHN)	GI50 (UO-31)	GI50 (MOLT-4)	GI50 (SNB-75)	GI50 (MDA-MB-231)	GI50 (BT-549)	GI50 (NCI-H522)	GI50 (DLD-1)
CCCCOC(=O)CC(CC(=O)OCCCC)(OC(C)=O)C(=O)OCCCC [ACETYLTRIBUTYL CITRATE]	> 200 µM (inactive)	> 100 µM (inactive)	132 µM (inactive)	> 200 µM (inactive)	> 170 µM (inactive)	14.7 µM (inactive)	48.4 µM (inactive)	> 106 µM (inactive)	> 178 µM (inactive)	60.8 µM (inactive)	> 123 µM (inactive)	60.1 µM (inactive)	> 200 µM (inactive)	39.6 µM (inactive)	17.2 µM (inactive)	8.49 µM (inactive)	> 200 µM (inactive)	> 200 µM (inactive)	47.5 µM (inactive)	–
CCC1(O)CC(O)c2c(O)c3c(c(O)c2C1C(=O)OC)C(=O)c1cccc(O)c1C3=O (configuration not stated)	3.43 µM (inactive)	3.85 µM (inactive)	2.86 µM (inactive)	3.78 µM (inactive)	5.36 µM (inactive)	1.12 µM (inactive)	3.77 µM (inactive)	5.42 µM (inactive)	5.45 µM (inactive)	3.29 µM (inactive)	4.7 µM (inactive)	2.21 µM (inactive)	3 µM (inactive)	3.18 µM (inactive)	0.415 µM (active)	6.31 µM (inactive)	2.9 µM (inactive)	6.85 µM (inactive)	1.75 µM (inactive)	–
CCOC(=O)/C(SC#N)=C(/N)N1CCCC1	> 100 µM (inactive)	> 100 µM (inactive)	> 100 µM (inactive)	> 60 µM (inactive)	> 100 µM (inactive)	> 100 µM (inactive)	> 100 µM (inactive)	> 100 µM (inactive)	> 100 µM (inactive)	> 100 µM (inactive)	> 100 µM (inactive)	> 100 µM (inactive)	> 100 µM (inactive)	> 100 µM (inactive)	> 100 µM (inactive)	> 94.8 µM (inactive)	> 100 µM (inactive)	> 100 µM (inactive)	> 100 µM (inactive)	–
Cc1cc(N(CCC#N)CCC#N)ccc1/C=C(\NC(=O)/C=C/c1ccccc1)C(=O)Nc1ccccc1Cl	78.7 µM (inactive)	> 100 µM (inactive)	–	> 100 µM (inactive)	–	–	–	–	–	> 100 µM (inactive)	–	> 100 µM (inactive)	> 100 µM (inactive)	> 100 µM (inactive)	> 100 µM (inactive)	–	–	–	–	> 100 µM (inactive)
C=CC1=C(C)c2cc3[nH]c(c4c5nc(cc6[nH]c(cc1n2)c(C)c6CC)C=C5C(=O)C4C(=O)OC)C(CCC(=O)OC/C=C(\C)CCCC(C)CCCC(C)CCCC(C)C)C3C.C=CC1=C(C)c2cc3[nH]c(c4c5nc(cc6[nH]c(cc1n2)c(C=O)c6CC)C=C5C(=O)C4C(=O)OC)C(CCC(=O)OC/C=C(\C)CCCC(C)CCCC(C)CCCC(C)C)C3C (configuration not stated)	> 100 µM (inactive)	> 100 µM (inactive)	> 100 µM (inactive)	> 100 µM (inactive)	> 100 µM (inactive)	> 100 µM (inactive)	> 100 µM (inactive)	> 100 µM (inactive)	> 100 µM (inactive)	> 100 µM (inactive)	> 100 µM (inactive)	43.9 µM (inactive)	> 100 µM (inactive)	> 100 µM (inactive)	> 100 µM (inactive)	> 100 µM (inactive)	> 100 µM (inactive)	76.4 µM (inactive)	22.6 µM (inactive)	–
C/C=C(\C)C(=O)OC1C2C(C)=CC(=O)C(O)C2(C)C2C3(O)OCC24C1OC(=O)C(OC(C)=O)C4C(C)C3O (configuration not stated)	0.197 µM (active)	–	–	0.0611 µM (active)	–	–	–	–	–	0.043 µM (active)	–	0.0719 µM (active)	–	0.195 µM (active)	0.0375 µM (active)	0.0389 µM (active)	–	–	–	0.0375 µM (active)
CN(C)c1cccc(/C=C(\C#N)c2ccccc2)c1	0.771 µM (active)	0.587 µM (active)	1.12 µM (active)	2.11 µM (inactive)	0.0451 µM (active)	0.0879 µM (active)	0.525 µM (active)	1.65 µM (inactive)	0.0478 µM (active)	1.44 µM (inactive)	0.723 µM (active)	0.533 µM (active)	14.4 µM (inactive)	5.46 µM (inactive)	0.493 µM (active)	1.39 µM (inactive)	1.11 µM (active)	21.3 µM (inactive)	0.273 µM (active)	–
Clc1ccc(OCc2nnc3sc(-c4ccc(-c5ccc(Cl)cc5Cl)o4)nn23)c(Cl)c1	28.7 µM (inactive)	14.8 µM (inactive)	18.1 µM (inactive)	17.4 µM (inactive)	24.2 µM (inactive)	2.58 µM (inactive)	19.5 µM (inactive)	23.4 µM (inactive)	32.8 µM (inactive)	21.6 µM (inactive)	19.7 µM (inactive)	26.1 µM (inactive)	20 µM (inactive)	25.8 µM (inactive)	18.6 µM (inactive)	15 µM (inactive)	16.3 µM (inactive)	21.4 µM (inactive)	17.8 µM (inactive)	–
CNC(=S)N/N=C(\C)c1nc2cccnc2[nH]1	33.8 µM (inactive)	27.7 µM (inactive)	48.5 µM (inactive)	> 100 µM (inactive)	> 100 µM (inactive)	28.4 µM (inactive)	43.5 µM (inactive)	55.2 µM (inactive)	77.1 µM (inactive)	–	> 50 µM (inactive)	33.5 µM (inactive)	38.9 µM (inactive)	9.25 µM (inactive)	31.9 µM (inactive)	> 70.6 µM (inactive)	42.7 µM (inactive)	27.9 µM (inactive)	22.8 µM (inactive)	–
COc1ccc2c(c1)Cc1c(NCCN(C)C)ccc(C(=O)NCCCN(C)CCCNC(=O)c3ccc(NCCN(C)C)c4c3Nc3ccc(OC)cc3C4)c1N2	0.753 µM (active)	0.209 µM (active)	< 0.01 µM (active)	< 0.0404 µM (active)	< 0.01 µM (active)	< 0.01 µM (active)	0.15 µM (active)	< 0.01 µM (active)	< 0.01 µM (active)	< 0.0212 µM (active)	< 0.01 µM (active)	< 0.01 µM (active)	0.0343 µM (active)	0.362 µM (active)	< 0.01 µM (active)	< 0.01 µM (active)	0.0322 µM (active)	0.148 µM (active)	< 0.01 µM (active)	–
O=C(Cc1ccccc1)Nc1nc2ccc(Cl)cc2c2nc(-c3ccco3)nn12	> 100 µM (inactive)	7.69 µM (inactive)	> 100 µM (inactive)	> 60.3 µM (inactive)	> 100 µM (inactive)	3.44 µM (inactive)	> 100 µM (inactive)	> 100 µM (inactive)	> 100 µM (inactive)	47.1 µM (inactive)	11 µM (inactive)	> 100 µM (inactive)	5.02 µM (inactive)	> 100 µM (inactive)	> 100 µM (inactive)	5.02 µM (inactive)	> 21.2 µM (inactive)	> 100 µM (inactive)	> 100 µM (inactive)	–
CC1(C)CC(=O)c2c(nc3c4c([nH]c(-c5ccc([N+](=O)[O-])cc5)c24)CC(C)(C)C3)C1	44.1 µM (inactive)	65.3 µM (inactive)	31.7 µM (inactive)	4.26 µM (inactive)	33 µM (inactive)	1.07 µM (active)	26.9 µM (inactive)	81.8 µM (inactive)	24.7 µM (inactive)	48.5 µM (inactive)	56.5 µM (inactive)	17 µM (inactive)	28 µM (inactive)	29.6 µM (inactive)	4.14 µM (inactive)	24.8 µM (inactive)	43.6 µM (inactive)	34 µM (inactive)	48.5 µM (inactive)	–
Cc1c(S(=O)(=O)c2ccccc2)c(N)n(CCN(C)C)c1C	> 100 µM (inactive)	28.9 µM (inactive)	86.9 µM (inactive)	> 100 µM (inactive)	> 100 µM (inactive)	> 100 µM (inactive)	> 100 µM (inactive)	> 100 µM (inactive)	> 100 µM (inactive)	> 100 µM (inactive)	> 100 µM (inactive)	> 100 µM (inactive)	> 100 µM (inactive)	> 100 µM (inactive)	> 100 µM (inactive)	> 100 µM (inactive)	> 100 µM (inactive)	36.1 µM (inactive)	> 100 µM (inactive)	–
O=S(=O)(O)c1ccc2cc(/N=N\c3cc(S(=O)(=O)O)c4cccnc4c3O)ccc2c1	> 100 µM (inactive)	> 100 µM (inactive)	> 100 µM (inactive)	> 100 µM (inactive)	> 100 µM (inactive)	> 100 µM (inactive)	> 100 µM (inactive)	> 100 µM (inactive)	> 100 µM (inactive)	> 100 µM (inactive)	> 100 µM (inactive)	> 100 µM (inactive)	> 100 µM (inactive)	> 100 µM (inactive)	> 100 µM (inactive)	> 100 µM (inactive)	> 100 µM (inactive)	> 100 µM (inactive)	> 100 µM (inactive)	–
CC(NNC(=O)c1cc[n+]([BH2-]C#N)cc1)c1ccc(Cl)cc1Cl (configuration not stated)	68.2 µM (inactive)	53.7 µM (inactive)	33.6 µM (inactive)	> 100 µM (inactive)	> 100 µM (inactive)	30.9 µM (inactive)	34.5 µM (inactive)	68.5 µM (inactive)	42.1 µM (inactive)	–	39.5 µM (inactive)	60.7 µM (inactive)	42.7 µM (inactive)	26.2 µM (inactive)	17.5 µM (inactive)	31.8 µM (inactive)	35 µM (inactive)	46.2 µM (inactive)	28.6 µM (inactive)	–
